According to patent US9867833B2, “Serine/threonine kinase inhibitors” (GENENTECH, INC., priority 2013, dated 2018):

Biological target: human ERK-2 (Mitogen Activated Kinase 1) (Homo sapiens (Human), UniProt P28482)
Assay: ERK-2 Enzymatic Assay
Format: biochemical
Conditions: human ERK-2 enzyme 5 nM, 25 μM ATP, S/T17 peptide substrate; isomer = configuration of CR2R3
Outline: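 Recombinant human ERK-2 (aa 8-360, N-terminal 6-His, E. coli) with 3-fold serially diluted compound. Per-well rates from linear fits converted to percent of control; IC50 by four-parameter fit.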

Chain of human ERK-2 (Mitogen Activated Kinase 1) (P28482 8-360): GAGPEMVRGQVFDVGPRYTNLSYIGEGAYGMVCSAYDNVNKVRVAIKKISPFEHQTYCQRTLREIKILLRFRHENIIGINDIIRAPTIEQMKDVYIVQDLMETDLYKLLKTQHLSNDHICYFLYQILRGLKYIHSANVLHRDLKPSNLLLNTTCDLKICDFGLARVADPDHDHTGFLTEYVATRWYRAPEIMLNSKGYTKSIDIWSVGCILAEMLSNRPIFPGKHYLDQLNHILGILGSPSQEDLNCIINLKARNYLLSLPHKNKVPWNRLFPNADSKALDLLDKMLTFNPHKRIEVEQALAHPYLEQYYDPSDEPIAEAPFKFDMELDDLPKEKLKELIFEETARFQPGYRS

| Compound | IC50 |
| --- | --- |
| Cn1nccc1Nc1nccc(-c2cc3n4c(nnc4c2)[C@H](Cc2ccc(F)cc2)CN3)n1 [(R) I-21, 4-(3-(4-fluorobenzyl)-4,5-dihydro-3H-1,2,2a^1,5-tetraazaacenaphthylen-7-yl)-N-(1-methyl-1H-pyrazol-5-yl)pyrimidin-2-amine] | 0.731 nM |
| Cn1nccc1Nc1cc(-c2cc3n4c(nnc4c2)[C@H](Cn2cc(Cl)cn2)CCO3)ccn1 [(S) I-47, 4-(9-((4-chloro-1H-pyrazol-1-yl)methyl)-8,9-dihydro-7H-6-oxa-1,2,2a^1-triazabenzo[cd]azulen-4-yl)-N-(1-methyl-1H-pyrazol-5-yl)pyridin-2-amine] | 0.465 nM |
| CN1C(=O)N[C@H](Cc2ccc(Cl)cc2)c2nnc3cc(-c4ccnc(Nc5ccnn5C)n4)cc1n23 [Compound I-6, (R)-9-(4-chlorobenzyl)-6-methyl-4-(2-((1-methyl-1H-pyrazol-5-yl)amino)pyrimidin-4-yl)-8,9-dihydro-1,2,2a^1,6,8-pentaazabenzo[cd]azulen-7(6H)-one] | 0.023 nM |
| COc1ccc(C[C@@H]2CN(C)c3cc(-c4ccnc(Nc5ccnn5C)c4)cc4nnc2n34)cc1 [(R) I-18, 4-(3-(4-methoxybenzyl)-5-methyl-4,5-dihydro-3H-1,2,2a^1,5-tetraazaacenaphthylen-7-yl)-N-(1-methyl-1H-pyrazol-5-yl)pyridin-2-amine] | 0.036 nM |
| Cn1nccc1Nc1nccc(-c2cc3n4c(nnc4c2)[C@@H](Cc2ccc(Cl)cc2)CCO3)n1 [(S) I-36, 4-(9-(4-chlorobenzyl)-8,9-dihydro-7H-6-oxa-1,2,2a^1-triazabenzo[cd]azulen-4-yl)-N-(1-methyl-1H-pyrazol-5-yl)pyrimidin-2-amine] | < 0.02 nM |
| COc1ccc(C[C@H]2COc3cc(-c4ccnc(Nc5ccnn5C)n4)cc4nnc2n34)cc1F [(R) I-46, 4-(3-(3-fluoro-4-methoxybenzyl)-3,4-dihydro-5-oxa-1,2,2a^1-triazaacenaphthylen-7-yl)-N-(1-methyl-1H-pyrazol-5-yl)pyrimidin-2-amine] | < 0.02 nM |
| CC(C)C[C@@H]1CCOc2cc(-c3ccnc(Nc4ccnn4C)n3)cc3nnc1n23 [(R) I-107, 4-(9-isobutyl-8,9-dihydro-7H-6-oxa-1,2,2a^1-triazabenzo[cd]azulen-4-yl)-N-(1-methyl-1H-pyrazol-5-yl)pyrimidin-2-amine] | 1.85 nM |
| Cn1nccc1Nc1nccc(-c2cc3n4c(nnc4c2)[C@H](Cc2ccc(F)cc2)CO3)n1 [(S) I-44, 4-(3-(4-fluorobenzyl)-3,4-dihydro-5-oxa-1,2,2a^1-triazaacenaphthylen-7-yl)-N-(1-methyl-1H-pyrazol-5-yl)pyrimidin-2-amine] | 5 nM |
| CCC[C@@H]1CC(=O)N(C)c2cc(-c3ccnc(Nc4ccnn4C)n3)cc3nnc1n23 [(R) I-64, 6-methyl-4-(2-((1-methyl-1H-pyrazol-5-yl)amino)pyrimidin-4-yl)-9-propyl-8,9-dihydro-1,2,2a^1,6-tetraazabenzo[cd]azulen-7(6H)-one] | 183 nM |
| COc1ccc(C[C@H]2CC(=O)N(C)c3cc(-c4ccnc(Nc5ccnn5C)n4)cc4nnc2n34)cc1 [(S) I-62, 9-(4-methoxybenzyl)-6-methyl-4-(2-((1-methyl-1H-pyrazol-5-yl)amino)pyrimidin-4-yl)-8,9-dihydro-1,2,2a^1,6-tetraazabenzo[cd]azulen-7(6H)-one] | 44 nM |
| CC(C)C[C@H]1CN(C)c2cc(-c3ccnc(Nc4ccnn4C)c3)cc3nnc1n23 [(S) I-20, 4-(3-isobutyl-5-methyl-4,5-dihydro-3H-1,2,2a^1,5-tetraazaacenaphthylen-7-yl)-N-(1-methyl-1H-pyrazol-5-yl)pyridin-2-amine] | 0.316 nM |
| Cn1nccc1Nc1nccc(-c2cc3n4c(nnc4c2)[C@@H](Oc2ccc(F)cc2)CCO3)n1 [(S) I-66, 4-(9-(4-fluorophenoxy)-8,9-dihydro-7H-6-oxa-1,2,2a^1-triazabenzo[cd]azulen-4-yl)-N-(1-methyl-1H-pyrazol-5-yl)pyrimidin-2-amine] | 0.02 nM |
| Cn1nccc1Nc1cc(-c2cc3n4c(nnc4c2)C(Cc2ccccc2Cl)CCO3)ccn1 (single isomer, unassigned) [(R) I-30, 4-(9-(2-chlorobenzyl)-8,9-dihydro-7H-6-oxa-1,2,2a^1-triazabenzo[cd]azulen-4-yl)-N-(1-methyl-1H-pyrazol-5-yl)pyridin-2-amine] | 2.55 nM |
| Cn1nccc1Nc1nccc(-c2cc3n4c(nnc4c2)[C@H](Cc2ccc(F)c(Cl)c2)CO3)n1 [(S) I-82, 4-(3-(3-chloro-4-fluorobenzyl)-3,4-dihydro-5-oxa-1,2,2a^1-triazaacenaphthylen-7-yl)-N-(1-methyl-1H-pyrazol-5-yl)pyrimidin-2-amine] | 12.4 nM |
| Cn1nccc1Nc1nccc(-c2cc3n4c(nnc4c2)[C@@H](Cc2cccc(Cl)c2)CO3)n1 [(R) I-88, 4-(3-(3-chlorobenzyl)-3,4-dihydro-5-oxa-1,2,2a^1-triazaacenaphthylen-7-yl)-N-(1-methyl-1H-pyrazol-5-yl)pyrimidin-2-amine] | < 0.02 nM |
| Cn1nccc1Nc1cc(-c2cc3n4c(nnc4c2)[C@H](c2ccccc2)CN3)ccn1 (single isomer, unassigned) [(R) I-4, N-(1-methyl-1H-pyrazol-5-yl)-4-(3-phenyl-4,5-dihydro-3H-1,2,2a^1,5-tetraazaacenaphthylen-7-yl)pyridin-2-amine] | 43.1 nM |
| Cn1nccc1Nc1nccc(-c2cc3n4c(nnc4c2)C(Cn2cc(C(F)(F)F)cn2)CCO3)n1 (centres unmarked) [Compound I-73, N-(1-methyl-1H-pyrazol-5-yl)-4-(9-((4-(trifluoromethyl)-1H-pyrazol-1-yl)methyl)-8,9-dihydro-7H-6-oxa-1,2,2a^1-triazabenzo[cd]azulen-4-yl)pyrimidin-2-amine] | < 0.02 nM |
| COc1ccc(C[C@@H]2CC(=O)N(C)c3cc(-c4ccnc(Nc5ccnn5C)c4)cc4nnc2n34)c(F)c1 [(R) I-74, 9-(2-fluoro-4-methoxybenzyl)-6-methyl-4-(2-((1-methyl-1H-pyrazol-5-yl)amino)pyridin-4-yl)-8,9-dihydro-1,2,2a^1,6-tetraazabenzo[cd]azulen-7(6H)-one] | < 0.02 nM |
| Cn1nccc1Nc1nccc(-c2cc3n4c(nnc4c2)[C@@H](c2ccccc2)CN3)n1 [(S) I-1, N-(1-methyl-1H-pyrazol-5-yl)-4-(3-phenyl-4,5-dihydro-3H-1,2,2a^1,5-tetraazaacenaphthylen-7-yl)pyrimidin-2-amine] | 1.1 nM |
| Cn1nccc1Nc1cc(-c2cc3n4c(ncc4c2)[C@@H](Cc2ccc(Cl)cc2)CN3)ccn1 [(S) I-8, 4-(3-(4-chlorobenzyl)-4,5-dihydro-3H-1,2,2a^1,5-tetraazaacenaphthylen-7-yl)-N-(1-methyl-1H-pyrazol-5-yl)pyridin-2-amine] | < 0.02 nM |
| COc1cccc(C[C@@H]2COc3cc(-c4ccnc(Nc5ccnn5C)c4)cc4nnc2n34)c1 [(S) I-97, 4-(3-(3-methoxybenzyl)-3,4-dihydro-5-oxa-1,2,2a^1-triazaacenaphthylen-7-yl)-N-(1-methyl-1H-pyrazol-5-yl)pyridin-2-amine] | 0.794 nM |
| COc1ccc(C[C@H]2CNc3cc(-c4ccnc(Nc5ccnn5C)n4)cc4nnc2n34)cn1 [(S) I-24, 4-(3-((6-methoxypyridin-3-yl)methyl)-4,5-dihydro-3H-1,2,2a^1,5-tetraazaacenaphthylen-7-yl)-N-(1-methyl-1H-pyrazol-5-yl)pyrimidin-2-amine] | < 0.02 nM |
| Cn1nccc1Nc1nccc(-c2cc3n4c(nnc4c2)[C@H](Cc2ccccc2)CO3)n1 [(S) I-15, 4-(3-benzyl-3,4-dihydro-5-oxa-1,2,2a^1-triazaacenaphthylen-7-yl)-N-(1-methyl-1H-pyrazol-5-yl)pyrimidin-2-amine] | 2.24 nM |
| Cn1nccc1Nc1cc(-c2cc3n4c(nnc4c2)C(Cc2ccc(Cl)cc2)CO3)ccn1 (single isomer, unassigned) [(S) I-55, 4-(3-(4-chlorobenzyl)-3,4-dihydro-5-oxa-1,2,2a^1-triazaacenaphthylen-7-yl)-N-(1-methyl-1H-pyrazol-5-yl)pyridin-2-amine] | 12.5 nM |
| Cn1nccc1Nc1nccc(-c2cc3n4c(nnc4c2)[C@@H](Cc2ccc(F)cc2)CO3)n1 [(R) I-44, 4-(3-(4-fluorobenzyl)-3,4-dihydro-5-oxa-1,2,2a^1-triazaacenaphthylen-7-yl)-N-(1-methyl-1H-pyrazol-5-yl)pyrimidin-2-amine] | < 0.02 nM |
| Cn1nccc1Nc1nccc(-c2cc3n4c(nnc4c2)[C@@H](Oc2cncc(F)c2)CCO3)n1 [(S) I-91, 4-(9-((5-fluoropyridin-3-yl)oxy)-8,9-dihydro-7H-6-oxa-1,2,2a^1-triazabenzo[cd]azulen-4-yl)-N-(1-methyl-1H-pyrazol-5-yl)pyrimidin-2-amine] | 0.035 nM |
| Cn1nccc1Nc1nccc(-c2cc3n4c(nnc4c2)[C@H](Cn2cc(C4CC4)cn2)CCO3)n1 [(S) I-56, 4-(9-((4-cyclopropyl-1H-pyrazol-1-yl)methyl)-8,9-dihydro-7H-6-oxa-1,2,2a^1-triazabenzo[cd]azulen-4-yl)-N-(1-methyl-1H-pyrazol-5-yl)pyrimidin-2-amine] | 1.39 nM |
| Cn1nccc1Nc1nccc(-c2cc3n4c(nnc4c2)[C@H](COCc2ccccc2)CCO3)n1 [(R) I-29, 4-(9-((benzyloxy)methyl)-8,9-dihydro-7H-6-oxa-1,2,2a^1-triazabenzo[cd]azulen-4-yl)-N-(1-methyl-1H-pyrazol-5-yl)pyrimidin-2-amine] | 0.109 nM |
| CN1C(=O)C[C@H](Cc2ccc(Cl)cc2)c2nnc3cc(-c4ccnc(Nc5ccnn5C)c4)cc1n23 [(S) I-40, 9-(4-chlorobenzyl)-6-methyl-4-(2-((1-methyl-1H-pyrazol-5-yl)amino)pyridin-4-yl)-8,9-dihydro-1,2,2a^1,6-tetraazabenzo[cd]azulen-7(6H)-one] | < 0.02 nM |
